Measurements taken from patent US5064947A (priority 1990, dated 1991).
Read-outs that look alike come from different tables or passages of the source.

Experiments:
adenosine A-2 receptors = biological target: T1, adenosine A-2 receptors (Rattus norvegicus, UniProt P30543); experiment: Affinity for brain adenosine A-2 receptors ([3H]NECA displacement, rat brain striatum membranes); format: binding
T1 construct: from tissue; host or cells: striatal membranes of young male rats (C-D strain, from Charles River)
T1 sequence (P30543 whole entry): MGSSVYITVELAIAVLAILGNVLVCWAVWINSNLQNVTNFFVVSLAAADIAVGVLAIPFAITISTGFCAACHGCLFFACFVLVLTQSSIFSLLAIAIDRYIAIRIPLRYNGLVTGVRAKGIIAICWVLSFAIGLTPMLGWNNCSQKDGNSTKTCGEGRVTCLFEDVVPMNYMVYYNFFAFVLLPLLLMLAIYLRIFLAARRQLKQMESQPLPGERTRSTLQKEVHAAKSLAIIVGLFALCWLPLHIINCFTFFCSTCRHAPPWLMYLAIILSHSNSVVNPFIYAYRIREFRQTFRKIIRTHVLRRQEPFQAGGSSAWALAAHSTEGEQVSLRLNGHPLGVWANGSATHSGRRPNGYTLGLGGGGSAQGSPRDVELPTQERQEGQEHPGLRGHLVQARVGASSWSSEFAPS
Description: The pellet is finally resuspended in 40 vol. of 50mM Tris-HCl (pH 7.7) per gram of original wet weight of tissue.
Incubations are carried out at 25° C. for 60 minutes. Each tube is filtered through GF/B glass fiber filters using a vacuum. The filters are rinsed two times with 5 ml of the ice-cold buffer. […] The filters are counted by liquid scintillation spectrometry.
Specific binding of [3H]NECA is measured as the excess over blanks run in the presence of 100 μM 2-chloroadenosine. […] Specific binding to membranes is about 50% of the total bound.

A-2 receptors = conditions: cited from earlier work
Adenosine A-1 receptor = biological target: T2, Adenosine A-1 receptor (Rattus norvegicus, UniProt P25099)
T2 sequence (P25099 1-326): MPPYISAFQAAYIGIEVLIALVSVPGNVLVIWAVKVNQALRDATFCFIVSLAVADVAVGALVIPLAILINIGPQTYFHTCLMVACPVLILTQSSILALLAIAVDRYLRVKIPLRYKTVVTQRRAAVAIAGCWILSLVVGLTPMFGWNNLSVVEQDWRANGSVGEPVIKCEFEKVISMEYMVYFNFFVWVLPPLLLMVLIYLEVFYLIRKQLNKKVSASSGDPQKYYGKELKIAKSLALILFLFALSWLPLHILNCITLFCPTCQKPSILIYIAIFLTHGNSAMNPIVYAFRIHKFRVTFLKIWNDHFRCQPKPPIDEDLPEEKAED

[1] = in vivo; cited from earlier work
A-1 receptors = conditions: cited from earlier work
[2] = ratio of A-2 Ki to A-1 Ki (selectivity)

Q: For OC[C@H]1O[C@@H](n2cnc3c2N=CN2C[C@H](Cc4ccccc4)N=C32)[C@H](O)[C@@H]1O [Compound 13, (S)-7,8-dihydro-3-(β-D-ribofuranosyl)-8-(phenylmethyl)-3H-diimidazo[1,2-c:4',5'-e]pyrimidine], which “A-2 Ki/A-1 Ki” value (adenosine A-2 receptors) is on record?
A: 1.70

Q: With CCCOC1=Nc2c(cnn2-c2ccccc2)C2=N[C@H](C)[C@@H](c3ccccc3)N12 [Compound 7, (2R-trans)-2,7-dihydro-2-methyl-3,7-diphenyl-5-propoxy-3H-Imidazo[1,2-c]pyrazolo[4,3-e]pyrimidine] as the compound, how does the “A-2 Ki/A-1 Ki” value (adenosine A-2 receptors; [2]) read?
A: 1.17

Q: Which “order of potency at A-2 receptors” value (A-2 receptors) does the source give for Nc1nc(Cl)nc2c1ncn2[C@@H]1O[C@H](CO)[C@@H](O)[C@H]1O [2-chloroadenosine] here?
A: NECA>2-chloroadenosine>R-PIA>CHA

Q: What does the source list for CCCOC1=Nc2c(ncn2-c2ccccc2)C2=N[C@@H](Cc3ccccc3)CN12 [Compound 12, (S)-7,8-dihydro-3-phenyl-8-(phenylmethyl)-5-propoxy-3H-diimidazo[1,2-c:4',5'-e]pyrimidine]?
A: Ki (Adenosine A-1 receptor): 9 µM; Ki (adenosine A-2 receptors; [3H]NECA, rat brain striatum membranes, 25° C., 60 minutes, read-out: A-2 Receptor Ki): 1.6 µM; A-2 Ki/A-1 Ki (adenosine A-2 receptors; [2]): 0.18

Q: What does the source list for CCCn1c(=O)c2[nH]c(-c3ccc(OCC(=O)NCCN)cc3)nc2n(CCC)c1=O [XAC, amino congener of 8-phenyl-1,3-dipropyl-xanthine]?
A: antagonizing the effects of adenosine analogs on heart rate versus blood pressure [1]: much more potent in antagonizing the effects of adenosine analogs on heart rate than on blood pressure; higher affinity for A-1 adenosine receptors vs A-2 (A-1 receptors; A-1 brain membranes versus A-2 brain slice assay): 40 fold

Q: For CCCn1c(=O)c2[nH]c(-c3ccc(OCC(=O)O)cc3)nc2n(CCC)c1=O [XCC, carboxylic acid congener of 8-phenyl-1,3-dipropyl-xanthine], which adenosine receptor selectivity (A-1 receptors; A-1 vs A-2, in vitro) is on record?
A: non-selective

Q: Which “A-2 Ki/A-1 Ki” value (adenosine A-2 receptors; [2]) does the source give for C1=Nc2c(cnn2-c2ccccc2)C2=N[C@H](Cc3ccccc3)CN12 [Compound 3, (R)-2,7-dihydro-7-phenyl-2-(phenylmethyl)-3H-imidazo[1,2-c]pyrazolo[4,3-e]pyrimidine] here?
A: 13.20

Q: With C1=Nc2c(ncn2-c2ccccc2)C2=N[C@H](Cc3ccccc3)CN12 [Compound 6, (R)-7,8-dihydro-3-phenyl-8-(phenylmethyl)-3H-diimidazo[1,2-c:4',5'-e]pyrimidine] as the compound, how does the “A-2 Ki/A-1 Ki” value (adenosine A-2 receptors) read?
A: 16.40

Q: With OC[C@H]1O[C@@H](n2cnc3c2N=CN2C[C@@H](Cc4ccccc4)N=C32)[C@H](O)[C@@H]1O [Compound 14, (R)-7,8-dihydro-3-(β-D-ribofuranosyl)-8-(phenylmethyl)-3H-diimidazo[1,2-c:4',5'-e]pyrimidine] as the compound, how does the “A-2 Ki/A-1 Ki” value (adenosine A-2 receptors) read?
A: 5.50

Q: Which “order of potency at A-2 receptors” value (A-2 receptors) does the source give for CCNC(=O)[C@H]1O[C@@H](n2cnc3c(N)ncnc32)[C@H](O)[C@@H]1O [NECA, N-5'-ethylcarboxamidoadenosine] here?
A: NECA>2-chloroadenosine>R-PIA>CHA

Q: Which “A-2 Ki/A-1 Ki” value (adenosine A-2 receptors; [2]) does the source give for CCCOC1=Nc2c(cnn2-c2ccccc2)C2=N[C@@H](Cc3ccccc3)CN12 [Compound 2, (S)-2,7-dihydro-7-phenyl-2-(phenylmethyl)-5-propoxy-3H-imidazo[1,2-c]pyrazolo[4,3-e]pyrimidine] here?
A: 0.18
